Measured values: PubChem BioAssay AID651927 (Vanderbilt Specialized Chemistry Center, 2012)

Target: Muscarinic acetylcholine receptor M5 (Homo sapiens) (UniProt P08912)
Assay: ACh response potentiation at M5 – CHO cells, human M5 (AID 651927)
Conditions: CHO-K1 hM5, Fluo-4 calcium flux, ACh EC20 potentiation

Muscarinic acetylcholine receptor M5 (Homo sapiens), sequence (P08912 whole entry, looked up): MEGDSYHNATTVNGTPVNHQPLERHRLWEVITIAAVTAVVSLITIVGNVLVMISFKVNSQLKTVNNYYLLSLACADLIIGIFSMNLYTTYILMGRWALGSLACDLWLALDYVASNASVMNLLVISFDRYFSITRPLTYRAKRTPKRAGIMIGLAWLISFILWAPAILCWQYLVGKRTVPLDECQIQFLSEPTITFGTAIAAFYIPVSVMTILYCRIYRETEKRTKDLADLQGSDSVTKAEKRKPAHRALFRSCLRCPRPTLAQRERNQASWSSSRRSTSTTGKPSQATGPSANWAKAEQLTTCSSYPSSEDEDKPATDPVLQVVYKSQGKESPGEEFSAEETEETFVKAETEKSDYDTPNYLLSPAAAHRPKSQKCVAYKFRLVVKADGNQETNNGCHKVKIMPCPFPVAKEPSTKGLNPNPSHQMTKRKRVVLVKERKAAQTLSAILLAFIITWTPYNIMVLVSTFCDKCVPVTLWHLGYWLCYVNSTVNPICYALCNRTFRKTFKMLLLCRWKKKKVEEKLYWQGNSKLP

`O=C1C(=O)N(CCOc2ccccc2)c2ccc(OC(F)(F)F)cc21` showed an EC50 of 589 nM.
